Patent US12122778B2, “Activating pyruvate kinase R” (Novo Nordisk Health Care AG, priority 2018, dated 2024)

Experiments:
PKR(G332S) = PKR(G332S) (Homo sapiens, UniProt P30613, G332S); test: Luminescence Biochemical Assay (Kinase Glo Plus), PKR G332S mutant; conditions: with FBP; for activation at 1.54 µM: 1.54 μM compound, read-out: AC50 LUM KGP FBP % Fold@1.54 μM mean; for AC50: read-out: AC50 LUM KGP FBP AC50 μM gmean (column A); for Emax: read-out: AC50 LUM KGP FBP MAX % FOLD mean
PKR(R510Q) = PKR(R510Q) (Homo sapiens, UniProt P30613, R510Q); test: Luminescence Biochemical Assay (Kinase Glo Plus), PKR R510Q mutant; conditions: without FBP; for activation at 1.54 µM: 1.54 μM compound, read-out: AC50 LUM KGP woFBP % Fold@1.54 μM mean; for AC50: read-out: AC50 LUM KGP woFBP AC50 μM gmean; for Emax: read-out: AC50 LUM KGP woFBP MAX % FOLD mean
PKR(wt) = PKR(wt) (Homo sapiens, UniProt P30613); test: Luminescence Biochemical Assay (Kinase Glo Plus), wild type PKR; conditions: without FBP; for activation at 1.54 µM: 1.54 μM compound, read-out: AC50 LUM KGP woFBP % Fold@1.54 μM mean; for AC50: read-out: AC50 LUM KGP woFBP AC50 μM gmean; for Emax: read-out: AC50 LUM KGP woFBP MAX % FOLD mean
PKR(wt), sequence (P30613 whole entry): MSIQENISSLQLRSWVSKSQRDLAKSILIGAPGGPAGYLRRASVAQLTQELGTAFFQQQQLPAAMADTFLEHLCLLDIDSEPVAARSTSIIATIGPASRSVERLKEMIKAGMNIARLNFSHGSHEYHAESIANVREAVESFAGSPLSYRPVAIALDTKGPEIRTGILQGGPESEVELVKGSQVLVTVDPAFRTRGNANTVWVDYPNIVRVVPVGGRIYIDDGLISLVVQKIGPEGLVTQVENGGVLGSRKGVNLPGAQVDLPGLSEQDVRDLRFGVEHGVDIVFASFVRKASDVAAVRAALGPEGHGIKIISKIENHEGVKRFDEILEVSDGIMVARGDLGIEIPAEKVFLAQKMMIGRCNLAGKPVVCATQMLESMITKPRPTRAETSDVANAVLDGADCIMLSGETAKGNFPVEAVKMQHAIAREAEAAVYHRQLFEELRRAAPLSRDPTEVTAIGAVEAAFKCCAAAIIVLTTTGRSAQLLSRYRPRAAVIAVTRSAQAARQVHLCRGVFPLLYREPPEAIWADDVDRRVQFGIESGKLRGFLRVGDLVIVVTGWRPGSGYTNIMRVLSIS

PKR(R510Q), sequence (P30613 whole entry R510Q): as the sequence (P30613 whole entry) above, with R510Q counted along it
PKR(G332S), sequence (P30613 whole entry G332S): as the sequence (P30613 whole entry) above, with G332S counted along it

| Structure (SMILES) | activation at 1.54 µM (PKR(G332S)) | AC50 (PKR(G332S)) | Emax (PKR(G332S)) | activation at 1.54 µM (PKR(R510Q)) | AC50 (PKR(R510Q)) | Emax (PKR(R510Q)) | activation at 1.54 µM (PKR(wt)) | AC50 (PKR(wt)) | Emax (PKR(wt)) |
| --- | --- | --- | --- | --- | --- | --- | --- | --- | --- |
| O=C(OCC1CC1)N1CC2=C(C1)CN(S(=O)(=O)c1ccc(OC(F)F)cc1)C2 [Example 22-2, Cyclopropylmethyl 5-[4-(difluoromethoxy)benzenesulfonyl]-1H,2H,3H,4H,5H,6H-pyrrolo[3,4-c]pyrrole-2-carboxylate] | 75 to 250% | 1 to 40 µM | 75 to 250% | 75 to 250% | 1 to 40 µM | 250 to 500% | 75 to 250% | 1 to 40 µM | 250 to 500% |
| O=C([C@@H](O)c1ccccn1)N1CC2=C(C1)CN(S(=O)(=O)c1ccc(OC(F)F)cc1)C2 (single isomer, unassigned) [Example 8-3] | 75 to 250% | 0.1 to 1 µM | 75 to 250% | 250 to 50000% | 0.1 to 1 µM | 250 to 500% | 250 to 50000% | 0.1 to 1 µM | 250 to 500% |
| O=C([C@H](O)c1ccccc1)N1CC2=C(C1)CN(S(=O)(=O)c1cccnc1)C2 [Example 4-1, (2R)-2-hydroxy-2-phenyl-1-[5-(pyridine-3-sulfonyl)-1H,2H,3H,4H,5H,6H-pyrrolo[3,4-c]pyrrol-2-yl]ethan-1-one] | 75 to 250% | 0.1 to 1 µM | 75 to 250% | 75 to 250% | 1 to 40 µM | 250 to 500% | 75 to 250% | 0.1 to 1 µM | 75 to 250% |
| O=C(NCc1cccc(F)c1)N1CC2=C(C1)CN(S(=O)(=O)c1ccc3ncsc3c1)C2 [Example 21-36, 5-(1,3-Benzothiazole-6-sulfonyl)-N-[(3-fluorophenyl)methyl]-1H,2H,3H,4H,5H,6H-pyrrolo[3,4-c]pyrrole-2-carboxamide] | 75 to 250% | 0.1 to 1 µM | 75 to 250% | 75 to 250% | 1 to 40 µM | 250 to 500% | 75 to 250% | 1 to 40 µM | 250 to 500% |
| O=C([C@H](O)c1ccccc1)N1CC2=C(C1)CN(S(=O)(=O)c1ccc(F)c(F)c1)C2 [Example 18-53, (2R)-1-[5-(3,4-difluorobenzenesulfonyl)-1H,2H,3H,4H,5H,6H-pyrrolo[3,4-c]pyrrol-2-yl]-2-hydroxy-2-phenylethan-1-one] | 75 to 250% | 1 to 40 µM | 75 to 250% | 75 to 250% | 0.1 to 1 µM | 75 to 250% | 75 to 250% | 0.1 to 1 µM | 75 to 250% |
| COc1cc(Cl)ccc1S(=O)(=O)N1CC2=C(CN(C(=O)[C@H](O)c3ccccc3)C2)C1 [Example 18-58, (2R)-1-[5-(4-chloro-2-methoxybenzenesulfonyl)-1H,2H,3H,4H,5H,6H-pyrrolo[3,4-c]pyrrol-2-yl]-2-hydroxy-2-phenylethan-1-one] | 75 to 250% | 1 to 40 µM | 75 to 250% | 75 to 250% | 1 to 40 µM | 75 to 250% | 75 to 250% | 1 to 40 µM | 75 to 250% |
| O=C([C@H](O)c1ccccc1)N1CC2=C(C1)CN(S(=O)(=O)c1cccnc1C(F)(F)F)C2 [Example 4-2, (R)-2-hydroxy-2-phenyl-1-(5-(2-(trifluoromethyl)pyridin-3-ylsulfonyl)-4,5-dihydropyrrolo[3,4-c]pyrrol-2(1H,3H,4H)-yl)ethanone] | 75 to 250% | 1 to 40 µM | 75 to 250% | 75 to 250% | 1 to 40 µM | 75 to 250% | 75 to 250% | 1 to 40 µM | 75 to 250% |
| O=C(C1CCOCC1)N1CC2=C(C1)CN(S(=O)(=O)c1ccc3c(c1)NCCO3)C2 [Example 7-1, (5-((3,4-dihydro-2H-benzo[b][1,4]oxazin-6-yl)sulfonyl)-3,4,5,6-tetrahydropyrrolo[3,4-c]pyrrol-2(1H)-yl)(tetrahydro-2H-pyran-4-yl)methanone] | 75 to 250% | 0.1 to 1 µM | 75 to 250% | 75 to 250% | 1 to 40 µM | 250 to 500% | 75 to 250% | 0.1 to 1 µM | 250 to 500% |
| O=C(Cc1cccnc1)N1CC2=C(C1)CN(S(=O)(=O)c1ccc(OC(F)F)cc1)C2 [Example 18-26, 1-{5-[4-(Difluoromethoxy)benzenesulfonyl]-1H,2H,3H,4H,5H,6H-pyrrolo[3,4-c]pyrrol-2-yl}-2-(pyridin-3-yl)ethan-1-one] | 75 to 250% | ≤ 0.1 µM | 75 to 250% | 250 to 50000% | 0.1 to 1 µM | 250 to 500% | 250 to 50000% | 0.1 to 1 µM | 250 to 500% |
| NS(=O)(=O)c1cccc(S(=O)(=O)N2CC3=C(CN(C(=O)[C@H](O)c4ccccc4)C3)C2)c1 [Example 17-1, 3-[5-[(2R)-2-hydroxy-2-phenylacetyl]-1H,2H,3H,4H,5H,6H-pyrrolo[3,4-c]pyrrole-2-sulfonyl]benzene-1-sulfonamide] | 75 to 250% | 1 to 40 µM | 75 to 250% | 75 to 250% | 1 to 40 µM | 75 to 250% | 75 to 250% | 1 to 40 µM | 75 to 250% |
| O=C(Cc1ccc(F)cc1F)N1CC2=C(C1)CN(S(=O)(=O)c1ccccn1)C2 [Example 18-67, 2-(2,4-Difluorophenyl)-1-[5-(pyridine-2-sulfonyl)-1H,2H,3H,4H,5H,6H-pyrrolo[3,4-c]pyrrol-2-yl]ethan-1-one] | 75 to 250% | 0.1 to 1 µM | 75 to 250% | 75 to 250% | 1 to 40 µM | 250 to 500% | 75 to 250% | 1 to 40 µM | 250 to 500% |
| O=C(C(O)c1cccc(F)c1)N1CC2=C(C1)CN(S(=O)(=O)c1ccc(OC(F)F)cc1)C2 (stereo not drawn) [Example 18-22, 1-{5-[4-(Difluoromethoxy)benzenesulfonyl]-1H,2H,3H,4H,5H,6H-pyrrolo[3,4-c]pyrrol-2-yl}-2-(3-fluorophenyl)-2-hydroxyethan-1-one] | 75 to 250% | ≤ 0.1 µM | 75 to 250% | 250 to 50000% | 0.1 to 1 µM | 250 to 500% | 75 to 250% | 0.1 to 1 µM | 250 to 500% |
| O=C(NCc1ccc(F)cc1)N1CC2=C(C1)CN(S(=O)(=O)c1ccc(C(F)(F)F)nc1)C2 [Example 21-39, N-[(4-fluorophenyl)methyl]-5-{[6-(trifluoromethyl)pyridin-3-yl]sulfonyl}-1H,2H,3H,4H,5H,6H-pyrrolo[3,4-c]pyrrole-2-carboxamide] | 75 to 250% | 1 to 40 µM | 75 to 250% | 75 to 250% | 1 to 40 µM | 75 to 250% | 75 to 250% | 1 to 40 µM | 75 to 250% |
| O=C([C@H](O)c1ccc(F)cc1)N1CC2=C(C1)CN(S(=O)(=O)c1ccc(OC(F)F)cc1)C2 [Example 18-31, (2R)-1-{5-[4-(difluoromethoxy)benzenesulfonyl]-1H,2H,3H,4H,5H,6H-pyrrolo[3,4-c]pyrrol-2-yl}-2-(4-fluorophenyl)-2-hydroxyethan-1-one] | 75 to 250% | ≤ 0.1 µM | 75 to 250% | 250 to 50000% | ≤ 0.1 µM | 250 to 500% | 250 to 50000% | ≤ 0.1 µM | 250 to 500% |
| COc1ccccc1CNC(=O)N1CC2=C(C1)CN(S(=O)(=O)c1ccc3ncsc3c1)C2 [Example 21-18, 5-(1,3-Benzothiazole-6-sulfonyl)-N-[(2-methoxyphenyl)methyl]-1H,2H,3H,4H,5H,6H-pyrrolo[3,4-c]pyrrole-2-carboxamide] | 75 to 250% | ≤ 0.1 µM | 75 to 250% | 250 to 50000% | 0.1 to 1 µM | 250 to 500% | 250 to 50000% | 0.1 to 1 µM | 250 to 500% |
| O=C([C@H](O)c1ccc(F)cc1)N1CC2=C(C1)CN(S(=O)(=O)c1ccc(C(F)(F)F)nc1)C2 [Example 18-64, (2R)-2-(4-fluorophenyl)-2-hydroxy-1-(5-{[6-(trifluoromethyl)pyridin-3-yl]sulfonyl}-1H,2H,3H,4H,5H,6H-pyrrolo[3,4-c]pyrrol-2-yl)ethan-1-one] | 75 to 250% | 1 to 40 µM | 75 to 250% | 75 to 250% | 1 to 40 µM | 75 to 250% | 75 to 250% | 1 to 40 µM | 75 to 250% |
| O=C(OCC1CCOC1)N1CC2=C(C1)CN(S(=O)(=O)c1ccc(OC(F)F)cc1)C2 (stereo not drawn) [Example 22-3, Oxolan-3-ylmethyl 5-[4-(difluoromethoxy)benzenesulfonyl]-1H,2H,3H,4H,5H,6H-pyrrolo[3,4-c]pyrrole-2-carboxylate] | 75 to 250% | 1 to 40 µM | 75 to 250% | 75 to 250% | 1 to 40 µM | 75 to 250% | 75 to 250% | 1 to 40 µM | 75 to 250% |
| O=C(Cc1cccnc1)N1CC2=C(C1)CN(S(=O)(=O)c1ccccn1)C2 [Example 16-1, 2-(Pyridin-3-yl)-1-[5-(pyridine-2-sulfonyl)-1H,2H,3H,4H,5H,6H-pyrrolo[3,4-c]pyrrol-2-yl]ethan-1-one] | 75 to 250% | 1 to 40 µM | 75 to 250% | 75 to 250% | 1 to 40 µM | 75 to 250% | 75 to 250% | 1 to 40 µM | 250 to 500% |
